Laboratory results taken from patent publication US9408852B2, “Method of lowering serum uric acid levels with (S)-tofisopam” (PHARMOS CORPORATION, priority 2011, dated 2016).

Key:
Assay type in all cases: in vivo, human
serum uric acid [1] = assay: Serum uric acid in postmenopausal women, single- and multiple-dose study (Comparative Example 4); parameters: Serum uric acid, baseline adjusted data, Median / Serum uric acid, unadjusted data, Mean / Serum uric acid, unadjusted data, Median / Serum uric acid, baseline adjusted data, Mean: unit not given here
Protocol: In a double-blind, randomized, placebo-controlled, single- and multiple-dose study in postmenopausal women with enantiomerically-pure (R)-tofisopam, patients were treated with placebo, 100 mg once a day (qd) of (R)-tofisopam, or 200 mg qd of (R)-tofisopam for the first day of the study, and then with placebo, 100 mg twice a day (bid) of (R)-tofisopam, or 200 mg bid of (R)-tofisopam for Days 2 to 7 of the study.

serum uric acid [2] = assay: Serum uric acid in female outpatients with irritable bowel syndrome, 3 months (Comparative Example 6); parameters: Serum uric acid Actual Value, Mean / Serum uric acid Change from Baseline, Mean / Serum uric acid Actual Value, Median / Serum uric acid Change from Baseline, Median: unit not given here; details: for Serum uric acid Actual Value, Mean / Serum uric acid Actual Value, Median / Serum uric acid Change from Baseline, Mean / Serum uric acid Change from Baseline, Median: women with irritable bowel syndrome
Protocol: The study lasted 3 months, and patients were treated with 100 mg, 200 mg or 300 mg of enantiomerically-pure (R)-tofisopam twice a day.

serum uric acid [3] = assay: Serum uric acid in male and female outpatients with irritable bowel syndrome, 3 months (Comparative Example 5); parameters: Serum uric acid Actual Value, Mean / Serum uric acid Change from Baseline, Mean / Serum uric acid Actual Value, Median / Serum uric acid Change from Baseline, Median: unit not given here; details: for Serum uric acid Actual Value, Mean / Serum uric acid Actual Value, Median / Serum uric acid Change from Baseline, Mean / Serum uric acid Change from Baseline, Median: men and women with irritable bowel syndrome
Protocol: The study lasted 3 months, and patients were treated with 200 mg of (R)-tofisopam twice a day (bid).

[4] = 100 mg bid (qd on D 1, bid on D 2 to D 7), time 6 h
[5] = 100 mg bid (qd on D 1, bid on D 2 to D 7), time 24 h
[6] = 100 mg bid (qd on D 1, bid on D 2 to D 7), time 72 h
[7] = 100 mg bid (qd on D 1, bid on D 2 to D 7), time 143 h
[8] = 100 mg bid (qd on D 1, bid on D 2 to D 7), time 168 h
[9] = 200 mg bid (qd on D 1, bid on D 2 to D 7), time 6 h
[10] = 200 mg bid (qd on D 1, bid on D 2 to D 7), time 24 h
[11] = 200 mg bid (qd on D 1, bid on D 2 to D 7), time 72 h
[12] = 200 mg bid (qd on D 1, bid on D 2 to D 7), time 143 h
[13] = 200 mg bid (qd on D 1, bid on D 2 to D 7), time 168 h

SMILES: CC[C@H]1C(C)=NN=C(c2ccc(OC)c(OC)c2)c2cc(OC)c(OC)cc21 [(R)-tofisopam]
- Serum uric acid, baseline adjusted data, Mean (serum uric acid [1]; [4]): 0
- Serum uric acid, baseline adjusted data, Median (serum uric acid [1]; [4]): 0
- Serum uric acid, unadjusted data, Mean (serum uric acid [1]; [4]): 0.19
- Serum uric acid, unadjusted data, Median (serum uric acid [1]; [4]): 0.19
- Serum uric acid, baseline adjusted data, Mean (serum uric acid [1]; [5]): 0.01
- Serum uric acid, baseline adjusted data, Median (serum uric acid [1]; [5]): 0.01
- Serum uric acid, unadjusted data, Mean (serum uric acid [1]; [5]): 0.20
- Serum uric acid, unadjusted data, Median (serum uric acid [1]; [5]): 0.21
- Serum uric acid, baseline adjusted data, Mean (serum uric acid [1]; [6]): 0.01
- Serum uric acid, baseline adjusted data, Median (serum uric acid [1]; [6]): 0.01
- Serum uric acid, unadjusted data, Mean (serum uric acid [1]; [6]): 0.20
- Serum uric acid, unadjusted data, Median (serum uric acid [1]; [6]): 0.21
- Serum uric acid, baseline adjusted data, Mean (serum uric acid [1]; [7]): 0.01
- Serum uric acid, baseline adjusted data, Median (serum uric acid [1]; [7]): 0.01
- Serum uric acid, unadjusted data, Mean (serum uric acid [1]; [7]): 0.20
- Serum uric acid, unadjusted data, Median (serum uric acid [1]; [7]): 0.20
- Serum uric acid, baseline adjusted data, Mean (serum uric acid [1]; [8]): 0.03
- Serum uric acid, baseline adjusted data, Median (serum uric acid [1]; [8]): 0.03
- Serum uric acid, unadjusted data, Mean (serum uric acid [1]; [8]): 0.23
- Serum uric acid, unadjusted data, Median (serum uric acid [1]; [8]): 0.23
- Effect on serum uric acid levels (serum uric acid [1]; 100 mg or 200 mg qd first day, bid Days 2 to 7): does not decrease
- Serum uric acid, baseline adjusted data, Mean (serum uric acid [1]; [9]): −0.01
- Serum uric acid, baseline adjusted data, Median (serum uric acid [1]; [9]): −0.01
- Serum uric acid, unadjusted data, Mean (serum uric acid [1]; [9]): 0.21
- Serum uric acid, unadjusted data, Median (serum uric acid [1]; [9]): 0.21
- Serum uric acid, baseline adjusted data, Mean (serum uric acid [1]; [10]): −0.01
- Serum uric acid, baseline adjusted data, Median (serum uric acid [1]; [10]): −0.01
- Serum uric acid, unadjusted data, Mean (serum uric acid [1]; [10]): 0.21
- Serum uric acid, unadjusted data, Median (serum uric acid [1]; [10]): 0.21
- Serum uric acid, baseline adjusted data, Mean (serum uric acid [1]; [11]): 0
- Serum uric acid, baseline adjusted data, Median (serum uric acid [1]; [11]): 0
- Serum uric acid, unadjusted data, Mean (serum uric acid [1]; [11]): 0.22
- Serum uric acid, unadjusted data, Median (serum uric acid [1]; [11]): 0.22
- Serum uric acid, baseline adjusted data, Mean (serum uric acid [1]; [12]): −0.01
- Serum uric acid, baseline adjusted data, Median (serum uric acid [1]; [12]): 0
- Serum uric acid, unadjusted data, Mean (serum uric acid [1]; [12]): 0.21
- Serum uric acid, unadjusted data, Median (serum uric acid [1]; [12]): 0.21
- Serum uric acid, baseline adjusted data, Mean (serum uric acid [1]; [13]): 0.01
- Serum uric acid, baseline adjusted data, Median (serum uric acid [1]; [13]): 0.01
- Serum uric acid, unadjusted data, Mean (serum uric acid [1]; [13]): 0.22
- Serum uric acid, unadjusted data, Median (serum uric acid [1]; [13]): 0.23
- Serum uric acid levels over time (serum uric acid [1]; up to 168 hours (7 days) after initiation of treatment): remained constant
- Serum uric acid Actual Value, Mean (serum uric acid [2]; 100 mg BID, 3 months Endpoint): 4.94
- Serum uric acid Actual Value, Median (serum uric acid [2]; 100 mg BID, 3 months Endpoint): 4.90
- Serum uric acid Change from Baseline, Mean (serum uric acid [2]; 100 mg BID, 3 months Endpoint): 0.22
- Serum uric acid Change from Baseline, Median (serum uric acid [2]; 100 mg BID, 3 months Endpoint): 0.20
- Serum uric acid Actual Value, Mean (serum uric acid [2]; 100 mg BID, Week 12): 4.91
- Serum uric acid Actual Value, Median (serum uric acid [2]; 100 mg BID, Week 12): 4.80
- Serum uric acid Change from Baseline, Mean (serum uric acid [2]; 100 mg BID, Week 12): 0.23
- Serum uric acid Change from Baseline, Median (serum uric acid [2]; 100 mg BID, Week 12): 0.20
- Effect on serum uric acid levels (serum uric acid [2]; 100 mg, 200 mg or 300 mg twice a day, 3 months, female outpatients with irritable bowel syndrome): does not decrease
- Serum uric acid Actual Value, Mean (serum uric acid [2]; 200 mg BID, 3 months Endpoint): 4.82
- Serum uric acid Actual Value, Median (serum uric acid [2]; 200 mg BID, 3 months Endpoint): 4.60
- Serum uric acid Change from Baseline, Mean (serum uric acid [2]; 200 mg BID, 3 months Endpoint): −0.19
- Serum uric acid Change from Baseline, Median (serum uric acid [2]; 200 mg BID, 3 months Endpoint): −0.20
- Serum uric acid Actual Value, Mean (serum uric acid [2]; 200 mg BID, Week 12): 4.82
- Serum uric acid Actual Value, Median (serum uric acid [2]; 200 mg BID, Week 12): 4.60
- Serum uric acid Change from Baseline, Mean (serum uric acid [2]; 200 mg BID, Week 12): −0.20
- Serum uric acid Change from Baseline, Median (serum uric acid [2]; 200 mg BID, Week 12): −0.20
- Serum uric acid Actual Value, Mean (serum uric acid [2]; 300 mg BID, 3 months Endpoint): 5.04
- Serum uric acid Actual Value, Median (serum uric acid [2]; 300 mg BID, 3 months Endpoint): 5.00
- Serum uric acid Change from Baseline, Mean (serum uric acid [2]; 300 mg BID, 3 months Endpoint): −0.05
- Serum uric acid Change from Baseline, Median (serum uric acid [2]; 300 mg BID, 3 months Endpoint): 0.00
- Serum uric acid Actual Value, Mean (serum uric acid [2]; 300 mg BID, Week 12): 5.02
- Serum uric acid Actual Value, Median (serum uric acid [2]; 300 mg BID, Week 12): 4.95
- Serum uric acid Change from Baseline, Mean (serum uric acid [2]; 300 mg BID, Week 12): −0.06
- Serum uric acid Change from Baseline, Median (serum uric acid [2]; 300 mg BID, Week 12): −0.05
- Serum uric acid levels over time (serum uric acid [2]; up to 3 months after initiation of treatment, 100, 200 or 300 mg twice a day): remained constant
- Serum uric acid Actual Value, Mean (serum uric acid [3]; 200 mg bid, 3 months Endpoint): 5.20
- Serum uric acid Actual Value, Median (serum uric acid [3]; 200 mg bid, 3 months Endpoint): 5.10
- Serum uric acid Change from Baseline, Mean (serum uric acid [3]; 200 mg bid, 3 months Endpoint): −0.06
- Serum uric acid Change from Baseline, Median (serum uric acid [3]; 200 mg bid, 3 months Endpoint): 0.00
- Serum uric acid Actual Value, Mean (serum uric acid [3]; 200 mg bid, Day 7): 5.18
- Serum uric acid Actual Value, Median (serum uric acid [3]; 200 mg bid, Day 7): 5.00
- Serum uric acid Change from Baseline, Mean (serum uric acid [3]; 200 mg bid, Day 7): −0.05
- Serum uric acid Change from Baseline, Median (serum uric acid [3]; 200 mg bid, Day 7): 0.00
- Serum uric acid Actual Value, Mean (serum uric acid [3]; 200 mg bid, Day 14): 5.22
- Serum uric acid Actual Value, Median (serum uric acid [3]; 200 mg bid, Day 14): 5.05
- Serum uric acid Change from Baseline, Mean (serum uric acid [3]; 200 mg bid, Day 14): −0.01
- Serum uric acid Change from Baseline, Median (serum uric acid [3]; 200 mg bid, Day 14): −0.10
- Serum uric acid Actual Value, Mean (serum uric acid [3]; 200 mg bid, Day 28): 5.18
- Serum uric acid Actual Value, Median (serum uric acid [3]; 200 mg bid, Day 28): 5.00
- Serum uric acid Change from Baseline, Mean (serum uric acid [3]; 200 mg bid, Day 28): −0.07
- Serum uric acid Change from Baseline, Median (serum uric acid [3]; 200 mg bid, Day 28): −0.10
- Serum uric acid Actual Value, Mean (serum uric acid [3]; 200 mg bid, Day 42): 5.46
- Serum uric acid Actual Value, Median (serum uric acid [3]; 200 mg bid, Day 42): 5.70
- Serum uric acid Change from Baseline, Mean (serum uric acid [3]; 200 mg bid, Day 42): 0.12
- Serum uric acid Change from Baseline, Median (serum uric acid [3]; 200 mg bid, Day 42): 0.20
- Serum uric acid Actual Value, Mean (serum uric acid [3]; 200 mg bid, Day 56): 5.40
- Serum uric acid Actual Value, Median (serum uric acid [3]; 200 mg bid, Day 56): 5.20
- Serum uric acid Change from Baseline, Mean (serum uric acid [3]; 200 mg bid, Day 56): 0.02
- Serum uric acid Change from Baseline, Median (serum uric acid [3]; 200 mg bid, Day 56): 0.00
- Serum uric acid Actual Value, Mean (serum uric acid [3]; 200 mg bid, Day 84): 5.37
- Serum uric acid Actual Value, Median (serum uric acid [3]; 200 mg bid, Day 84): 5.30
- Serum uric acid Change from Baseline, Mean (serum uric acid [3]; 200 mg bid, Day 84): 0.03
- Serum uric acid Change from Baseline, Median (serum uric acid [3]; 200 mg bid, Day 84): 0.10
- Effect on serum uric acid levels (serum uric acid [3]; 200 mg twice a day (bid), 3 months, male and female outpatients with irritable bowel syndrome): does not decrease
- Serum uric acid levels over time (serum uric acid [3]; up to 3 months after initiation of treatment, 200 mg bid): remained constant
